Reference: PMC10906247, “From Functional Fatty Acids to Potent and Selective Natural-Product-Inspired Mimetics via Conformational Profiling” (ACS Central Science, 2024)
Read-outs that look alike come from different tables or passages of the source.

Key:
[1] = target: T1, TLX ligand binding domain (Homo sapiens, UniProt Q9Y466); assay: TLX ligand sensing assay (AlphaScreen, RIP140 NR box peptide recruitment); type: biochemical
T1 construct: purchased NovAliX SAS, Strasbourg, France

GPR40 (FFAR1) = GPR40 (FFAR1) (Homo sapiens, UniProt O14842); assay: PathHunter β-arrestin assay (Eurofins Discovery), GPR40; type: cell-based
Description: (§1) With these compounds in hand, attention was directed at evaluating their properties as ligands to GPR40, GPR120,[24] and TLX. Initial profiling experiments were conducted targeting the GPCR targets at a single concentration (15 μM) in a commercially available β-arrestin assay.
(§2) Functional assays at GPR40 and GPR120 were conducted by Eurofins Discovery services using their PathHunter® b-Arrestin assay that monitors the activation of a GPCR in a homogenous, non-imaging assay format using a technology developed by DiscoverX called Enzyme Fragment Complementation (EFC) with b-galactosidase (b-Gal) as the functional reporter. b-Arrestin GPCR cell lines built on the principles of EFC are engineered to co-express the ProLinkTM (PK) tagged GPCR and the Enzyme Acceptor (EA) tagged b-Arrestin. Activation of the GPCR-PK induces b-Arrestin-EA recruitment, forcing complementation of the two b-galactosidase enzyme fragments (EA and PK). The resulting functional enzyme hydrolyzes substrate to generate chemiluminescent […]
(§3) Additional information can be found at: www.eurofinsdiscovery.com/solution/b-arrestin Below are dose-response curves generated from Eurofins Discovery services for activity of ligands depicted in Figure 6B at GPR40 (FFAR1) and GPR120. […]

GPR120 [2] = target: T2, GPR120 (Homo sapiens, UniProt Q5NUL3); conditions: read-out: GPR120 EC50 historical; oleic acid; cited from earlier work
T2 sequence (Q5NUL3 1-361): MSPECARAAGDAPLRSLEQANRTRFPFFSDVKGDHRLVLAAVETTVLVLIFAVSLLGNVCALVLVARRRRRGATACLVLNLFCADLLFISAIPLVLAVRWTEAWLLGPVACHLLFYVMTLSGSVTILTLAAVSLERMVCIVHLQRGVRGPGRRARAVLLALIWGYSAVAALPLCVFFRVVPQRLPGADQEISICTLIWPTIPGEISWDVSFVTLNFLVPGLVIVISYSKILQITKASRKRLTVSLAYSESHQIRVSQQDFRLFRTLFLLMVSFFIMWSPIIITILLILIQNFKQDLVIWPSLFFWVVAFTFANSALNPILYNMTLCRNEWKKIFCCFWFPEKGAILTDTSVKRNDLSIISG

GPR40 = conditions: oleic acid; stimulatory activity on CHO-mGPR40 cells; read-out: GPR40 EC50 historical; cited from earlier work
MIN6 cells = system: MIN6 cells; set-up: method as in PMID 12629551, PMID 12496284; conditions: cited from earlier work
GPR120 [3] = target: T2, GPR120; assay: PathHunter β-arrestin assay (Eurofins Discovery), GPR120; type: cell-based
Description: as §1, §2, §3

[4] = dose-response, oleic acid = 100

T1 sequence (Q9Y466 155-383 limits assumed): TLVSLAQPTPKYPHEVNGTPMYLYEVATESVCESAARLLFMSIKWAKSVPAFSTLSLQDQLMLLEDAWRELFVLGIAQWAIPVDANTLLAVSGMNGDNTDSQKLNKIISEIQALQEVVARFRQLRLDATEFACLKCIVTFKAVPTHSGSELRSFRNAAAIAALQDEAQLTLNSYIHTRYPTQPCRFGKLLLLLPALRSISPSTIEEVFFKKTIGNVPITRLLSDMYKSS
GPR40 (FFAR1), sequence (O14842 whole entry): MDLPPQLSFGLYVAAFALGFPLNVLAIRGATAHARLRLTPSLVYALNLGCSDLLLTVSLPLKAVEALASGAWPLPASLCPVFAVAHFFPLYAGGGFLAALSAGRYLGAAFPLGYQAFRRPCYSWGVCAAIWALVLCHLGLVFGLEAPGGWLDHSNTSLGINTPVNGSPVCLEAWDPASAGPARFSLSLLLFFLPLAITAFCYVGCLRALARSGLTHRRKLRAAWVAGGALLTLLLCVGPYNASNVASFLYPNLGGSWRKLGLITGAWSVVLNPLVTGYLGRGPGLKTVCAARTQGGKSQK

For `CCCCCCCC/C=C\CCCCCCCC(=O)O` [oleic acid, reference compound], the EC50 [1] was 3.55 µM, the “enhanced recruitment of a coactivator protein fragment” value [1] was 8.4 fold and the EC50 ([1]; ALPHA normalized, supplement, read-out: TLX EC50 (dose-response curves)) was 3.55 µM. For the same molecule, the EC50 ([1]; coactivator recruitment, read-out: TLX EC50) was 3.6 µM, the TLX max. efficacy ([1]; oleic acid = 100) was 100% and the EC50 (GPR40 (FFAR1); GPR40 EC50 measured) was 37 µM. The GPR40 max. efficacy (GPR40 (FFAR1); [4]) was 100%, the “right shift of GPR40 result relative to reported historical activity” value (GPR40 (FFAR1); measured vs historical EC50) was ~20 fold and the EC50 (GPR120 [2]) was 12 µM. The EC50 (GPR40) was 2 µM, the “concentration inducing insulin secretion” value (MIN6 cells) was ≥ 1 µM and the EC50 (GPR120 [3]; GPR120 EC50 measured) was 15 µM. The GPR120 max. efficacy (GPR120 [3]; [4]) was 100%.
